Results taken from patent publication US6583132B1, “Oxidant scavengers” (Duke University, priority 1993, dated 2003).

Legend:
rat cortical cells = assay: Neurotoxicity (LDH release) in cortical cell culture; format: cell-based; details: for NMDA-induced LDH release: 1 mM NOS inhibitor
Experimental: (§1) Tissue culture: Mixed neuronal and glial cultures were prepared from embryonic day-18 rat cerebral cortices (Sprague-Dawley, Zivic Miller). Briefly, the cerebral cortices were dissected and enzymatically dissociated by incubation in Ca^++-, Mg^++-free Hank's balanced salt solution (HBSS) supplemented with 10 mM HEPES and 0.25% trypsin for 20 min. at 37° C. The tissue was rinsed and dispersed into single cell suspension by gentle passage through a fire polished Pasteur pipette. The cell suspension was centrifuged and resuspended in Minimum Essential Media (MEM), containing Earle's salts supplemented with 3 g/L glucose, 5% horse serum and 5% fetal bovine serum (growth media). The cells were plated in poly-D-lysine-coated multi-well plates: 12-well plates for aconitase measurement, and 24 well plates for toxicity experiments. Cells were maintained at 37° C. in a humidified incubator with 5% CO2/95% air in growth media. Media was not replaced so as to reduce glial overgrowth and neuronal loss. Mature cells (14-17 days in vitro) were used for all experiments.
(§2) Cell treatment: The growth media was replaced with MEM supplemented with 25 mM glucose (MEM-g). For both neurotoxicity studies and aconitase measurement, cells were incubated in the designated treatment for the indicated length of time at 37° C. Unless otherwise specified, antagonists or SOD-mimetics were added 15 min. prior to agonists. For measurement of neurotoxicity, cells were incubated with treatments for 18 hr at 37° C. in MEM-g. To access the ability of antagonists to inhibit acute NMDA toxicity or rescue cells from an ongoing NMDA insult, an alternate paradigm of NMDA treatment was used in addition to the one describe above. In this paradigm, growth media was replaced with HBSS^+ (Ca^++-, Mg^++-free Hank's Balanced Salt Solution supplemented with 2 mM CaCl2, 1 mM NaHCO3, 10 mM HEPES and 5 μM glycine), cells were treated with vehicle or 100 μM NMDA for 15 min. after which HBSS^+ was replaced with MEM-g and cells were returned to the incubator for 18 additional hrs. Antagonsists or SOD-mimetics were added to the cells 15 min. before NMDA exposure or 15, 30 or 60 min. following final media replacement. For determination of Ca^++-dependence, cells were incubated in HBSS^+ with no added Ca^++. When kainate (KA) was used as an agonist, 100 μM D-APV was routinely included to block secondary NMDA receptor activation. Catalase (100 U/ml) was always included when xanthine plus xanthine oxidase (X+XO) was used as a treatment to rule out the contribution of hydrogen peroxide.
Neurotoxicity studies: Neurotoxicity was determined by the measurement of LDH released in the supernatant media as previously described (Patel et al, Toxicol. Appl. Pharmacol. 115:124 (1991) and Neurotoxicology 14:35 (1992)). LDH was measured by the method of Vassault, Lactate dehydrogenase. In: Methods of Enzymatic Analysis, Bergmeyer HU (ed), Verlag Chemie, Weinheim, pp. 118-126 (1983). Additionally, cell death was confirmed with ethidium-1 homodimer (EthD-1). Briefly, the cells were washed with HBSS, loaded with 20 μM EthD-1 for 30 min,. rinsed and viewed through fluorescence optics. The number of dead cells labeled with EthD-1 were counted in 4-6 randomly selected fields, the numbers averaged to give an estimate of cell death and the experiment was repeated 3 times.

Cold-induced brain edema = format: in vivo, mice; details: for Edema Index: mean ± standard error; for less edema formation compared to saline treated controls: pretreatment i.p.
Experimental: Injury model: Young (6-7 week) mice (see Example I) were anesthetized with 60 mg/kg pentobarbital (Nembutal, Abbott Laboratories, Chicago, Ill.). An incision was then made in the scalp and a steel rod 20 cm long, 3 mm in diameter, equilibrated in liquid nitrogen with an 8 cm bath of liquid nitrogen 4 cm from the end of the rod, was placed on the skull over the right cerebral hemisphere for 30 seconds. The skin incision was then sutured.
Two hours after the injury the mouse was given an additional dose of pentobarbital. The chest cavity was opened, the lungs were excised, and the mouse was then perfused with 20 ml saline through the left ventricle of the heart. The brain was then removed and the cerebellum was excised. The right (R) and left (L) cerebral hemispheres were separated and immediately weighed (wet weight, W). Each hemisphere was then dried at 70° C. for 2-3 days in a hot air oven until a constant weight was achieved (dry weight, D). An index of edema (I) was then calculated as shown in equation 13.
I=(W/D R−W/DL)/(W/DL)×100 [13]
Chemical treatments: Six groups of experiments were conducted to investigate the importance of extracellular superoxide, iron, and nitric oxide in cold-induced brain edema. In all groups, drugs were dissolved in saline and injected at 0.008 cc/g 15 minutes prior to cold injury. In Group 1, edema formation of EC-SOD transgenic mice was compared with that of nontransgenic littermates. Group 2 compared edema formation between wild-type (C57BL/6×C3H)F1 mice treated with saline and (C57BL/6×C3H)F1 mice treated with 0.33 mg/g deferoxamine (0.51 μmoles/g). Group 3 compared (C57BL/6×C3H)F1 mice treated with saline to (C57BL/6×C3H)F1 mice treated with 0.51 μmoles/g Fe^3÷− saturated deferoxamine. Group 4 consisted of (C57BL/6×C3H)F1 mice treated with saline and (C57BL/6×C3H)F1 mice treated with 0.02 mg/g N-ω-nitro-L-arginine methyl ester. Group 5 consisted of (C57BL/6×C3H)F1 mice treated with saline and (C75BL/6×C3H)F1 mice treated with 0.02 mg/g N-ω-nitro-L-arginine methyl ester plus 0.05 mg/g L-arginine. Group 6 compared edema formation between nontransgenic mice, EC-SOD transgenic mice treated with saline, and EC-SOD transgenic mice treated with 0.02 mg/g N-ω-nitro-L-arginine methyl ester.
Iron saturated deferoxamine was made by dissolving equimolar amounts of deferoxamine and then ferric chloride in saline. Saturation of deferoxamine with ferric iron was determined spectrophotometrically be measuring the absorbance at 425 nm (ε=2500 M^−1 cm^−1 for Fe3+-deferoxamine) (Monzyk and Crumbliss, J. Amer. Chem. Soc. 104:4921 (1982)).

aconitase = assay: Aconitase activity in cortical cell lysates; format: cell-based, rat; details: for decrease in aconitase activity: PQ^++ 3 hrs, NMDA 1 hr, KA 6 hrs; for NMDA-induced aconitase inactivation: 1 mM NOS inhibitor
Experimental: as §1, §2
Aconitase measurement: For the measurement of aconitase, following treatment with agents, media was removed and cells lysed in ice-cold 50 mM, Tris/HCl, pH 7.4 containing 0.6 mM MnCl2, 1 mM L-cysteine, 1 mM citrate and 0.5% Triton-X 100. The aconitase activity of cell lysates was measured spectrophotometrically by monitoring the formation of cis-aconitate from isocitrate at 240 nm in 50 mM Tris/HCl, pH 7.4, containing 0.6 mM MnCl2 and 20 mM isocitrate at 25° C. (Kreb and Holzach, Biochem. J. 52:527 (1952); Gardner and Fridovich, J. Biol. Chem. 267:8757 (1992)). […] Aconitase activity in cortical cell lysates was inhibited by 0.1 mM potassium ferricyanide or by boiling of sample.

[1] = CNS oxygen toxicity, 6 ATA hyperbaric oxygen exposure; format: in vivo, mice; details: for Survival: 6 ATA oxygen 25 minutes, DDC 400 mg/kg i.p. or LNNA 20 mg/kg i.p.
Experimental: Oxygen exposures: 7-8 week old mice were exposed to hyperbaric oxygen five at a time in a small-animal chamber (Bethlehem, Pa.). After flushing the chamber with pure oxygen, compression to 50 meters (6 ATA) was performed within 5 minutes. The oxygen concentration in the chamber was monitored continuously with a Servomex oxygen analyzer (model 572, Sybron, Norwood, Mass.) and maintained at ≳99%. The carbon dioxide concentration was analyzed from intermittent samples of chamber gas with an IR detector (IR Industries, Santa Barbara, Calif.) and was not allowed to rise above 0.1%. The chamber temperature was maintained at 25-26° C., but the compression of oxygen in the chamber raised the temperature to 30-32° C. transiently, but an environmental control system restored the normal chamber temperature within 3 minutes. […] The mice were observed continuously for signs of oxygen toxicity from the beginning of the exposure until 4 hours after removal from the chamber. The time to the first generalized convulsion (seizure latency) and the time to death were recorded. These exposure conditions are designed to cause CNS oxygen toxicity without appreciable evidence of pulmonary oxygen toxicity.
Treatment with diethyldithiocarbamate: One hour prior to exposure to 6 ATA oxygen, mice were given either i.p. injections of either 0.008 cc/g saline or 400 mg/kg diethyldithiocarbamate dissolves in normal saline (0.008 cc/g). The mice were then exposed to 6 ATA oxygen for 25 minutes as described above.
Treatment with β-mercaptoethanol: One hour prior to exposure to 6 ATA oxygen, mice were given either i.p. injections of 0.008 cc/g saline or 180 mg/kg β-mercaptoethanol (0.008 cc/g). This dose of β-mercaptoethanol was selected because it contains an equal number of reducing thiols as the dose of diethyldithiocarbamate. The mice were then exposed to 6 ATA oxygen for 30 minutes as described above.
Treatment with N-ω-nitro-L-arginine, an inhibitor of nitric oxide synthase: Ten minutes prior to beginning compression, 0.008 cc/g saline or 20 mg/kg (0.008 cc/g) N-ω-nitro-L-arginine dissolved in sterile water was given i.p to the transgenic and nontransgenic mice. Mice were then exposed at 6 ATA oxygen for 25 or 75 minutes as described above.

J774 macrophages = assay: Mitochondrial respiration (MTT) in J774 macrophages; format: cell-based; details: IFN alone, 10 U/ml
Experimental: Cell culture: J774 macrophages were cultured in DMEM medium, supplemented with L-glutamine (3.5 mmol/L) and 10% fetal calf serum. Cells were cultured in 96-well plates (200 μl medium/well) until confluence. To induce the inducible isoform of nitric oxide synthase (iNOS), fresh culture medium containing E. coli LPS (011:B4, 10 μg/ml) alone or in combination with murine γ-interferon (γ-IFN, 10 U/ml) was added in the presence or absence of the NOS inhibitor, the SOD mimetic of the combination of the two compounds for 24 h. Moreover, cells were exposed to the NO donor compounds S-nitroso-N-acetyl-DL-penicillamine (SNAP) (3 mM) and diethylamine:NO NONOate (DNO) (3 mM) for 24 h or to authentic peroxynitrite (1 mM) for 1 h). Nitride/nitrate concentration in the medium and mitochondrial respiration were then measured as described below.
Measurement of mitochondrial respiration: Cell respiration was assessed by the mitochondrial-dependent reduction of 3-(4,5-dimethylthiazol-2-yl)-2,5-diphenyltetrazolium bromide (MTT) to formazan. Cells in 96-well plates were incubated at 37° C. with MTT (0.2 mg/ml) for 1 hour. Culture medium was removed by aspiration and the cells were solubilized in DMSO (100 μl). The extent of reduction of MTT to formazan within cells was quantitated by the measurement of OD550. All measurements were corrected for the interference of MnTBAP at this wavelength.

N[C@H](CCCP(=O)(O)O)C(=O)O [D-APV, reference compound]
LDH release (rat cortical cells; condition "pre", 100 μM D-APV, 100 μM NMDA 15 min.): complete blockade

CC(=O)N(O)CCCCCNC(=O)CCC(=O)N(O)CCCCCNC(=O)CCC(=O)N(O)CCCCCN [Deferoxamine, deferoxamine]
Edema Index (Cold-induced brain edema; wild-type mice, 0.51 μmoles/g, 15 minutes prior to cold injury): 3.41 ± 0.49 | less edema formation compared to saline treated controls (Cold-induced brain edema; wild-type mice): 43%

C=C(C)[C@H]1CN[C@H](C(=O)O)[C@H]1CC(=O)O [KA, kainate]
decrease in aconitase activity (aconitase): 42%

N=C(N)NCCC[C@H](N)C(=O)O [L-arginine]
effect of excess L-arginine on protection by N-ω-nitro-L-arginine ([1]; 20 mg/kg LNNA plus 50 mg/kg L-arginine, 6 ATA oxygen): could be reversed

COC(=O)[C@@H](N)CCCNC(=N)N[N+](=O)[O-] [LNAME, N-ω-nitro-L-arginine methyl ester]
NMDA-induced LDH release (rat cortical cells): unchanged | NMDA-induced aconitase inactivation (aconitase): unchanged | Edema Index (Cold-induced brain edema; EC-SOD transgenic mice, 20 mg/kg 15 minutes prior to cold-induced injury): 4.30 ± 0.96 | Edema Index (Cold-induced brain edema; wild-type mice, 0.02 mg/g LNAME, with or without 0.05 mg/g L-arginine): 3.65 ± 0.51 | less edema formation compared to saline treated controls (Cold-induced brain edema; wild-type mice): 37%

C[C@]12N[C@H](Cc3ccccc31)c1ccccc12 [MK801, reference compound]
reduction of LDH release / protective effect (rat cortical cells; added 15 min. after 15 min. 100 μM NMDA, 200 μM MnTBAP, 10 μM MK801): 17%

NC(=NCCC[C@H](N)C(=O)O)N[N+](=O)[O-] [N-ω-nitro-L-arginine]
difference in sensitivity between transgenic and nontransgenic mice ([1]; 20 mg/kg i.p., 6 ATA oxygen 75 minutes): abolished the difference in sensitivity | Survival ([1]; nontransgenic mice): 100% | seizure latency ([1]; transgenic and nontransgenic mice, 20 mg/kg i.p., 6 ATA oxygen): significantly delayed | Survival ([1]; transgenic mice): 100% | seizure latency ([1]; wild-type mice, 20 mg/kg i.p., 6 ATA oxygen): 13.50 ± 5.6 min | mortality ([1]; wild-type mice, 20 mg/kg i.p., 90 minutes of 6 ATA oxygen): 50% | mortality ([1]; wild-type mice, 20 mg/kg i.p., 2 hours of 6 ATA oxygen): 100% | NMDA-induced LDH release (rat cortical cells): unchanged | NMDA-induced aconitase inactivation (aconitase): unchanged

CN[C@H](CC(=O)O)C(=O)O [NMDA, N-methyl-D-aspartate]
decrease in aconitase activity (aconitase): 40%

C[n+]1ccc(-c2cc[n+](C)cc2)cc1 [PQ^++, methylviologen (paraquat)]
decrease in aconitase activity (aconitase): 70%

OCCS [β-mercaptoethanol]
protection against CNS oxygen toxicity ([1]; 180 mg/kg i.p., 6 ATA oxygen 30 minutes): did not protect against CNS oxygen toxicity

B1: IFN: murine γ-interferon (protein, UniProt P01580 23-155, looked up)
Interferon gamma: HGTVIESLESLNNYFNSSGIDVEEKSLFLDIWRNWQKDGDMKILQSQIISFYLRLFEVLKDNQAISNNISVIESHLITTFFSNSKAKKDAFMSIAKFEVNNPQVQRQAFNELIRVVHQLLPESSLRKRKRSRC
suppression of respiration (J774 macrophages): < 15%
